By IC50 is commonly meant the midpoint of a concentration-inhibition curve. A high value points to lower potency.

SMILES strings stand for the structures.

These results are taken from patent US10442763B2, “EBNA1 inhibitors and methods using same” (priority 2015, dated 2019).

The target in the experiment is T1, His-EBNA1 (DNA binding domain of EBNA1, amino acids 459-607) (Epstein-Barr virus, UniProt P03211).
T1 construct: made in house; host or cells: E. coli
T1 sequence (P03211 459-607): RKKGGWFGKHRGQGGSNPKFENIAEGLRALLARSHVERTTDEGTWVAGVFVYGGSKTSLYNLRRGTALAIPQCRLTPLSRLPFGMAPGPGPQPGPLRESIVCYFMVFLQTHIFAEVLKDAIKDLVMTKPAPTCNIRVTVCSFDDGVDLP
Kind of experiment: Inhibition of 5'-biotin-oPL4624 binding to His-EBNA1 using Alpha Screen technology. The protocol: Inhibition of 5′-Biotin-oPL4624 Binding to his-EBNA1 Using Alpha Screen Technology
Assays were performed using the DNA binding domain of EBNA1 (amino acids 459-607), which was His-tagged (His-EBNA1) and the self-complementary biotinylated (bt) oligonucleotide with the sequence 5′-bt-[…]-ATGCTACCC-3′ (bt-oPL4624; or 5′-bt-SEQ ID NO: 1). The protein was expressed in E. coli and purified according to Barwell, et al., 1995, J Biol Chem. 270:20556-9.). The bt-oPL4624 oligonucleotide was purchased from Integrated DNA Technologies, Inc (IDT). AlphaScreen donor, acceptor beads and white, opaque 384-well assay plates were purchased from PerkinElmer, Inc.
Assays contained 15 nM His-EBNA1, 0.2 nM bt-oPL4624, 5 μg/mL AlphaScreen streptavidin donor beads and nickel chelate acceptor beads, and a series of concentrations of test compound ranging from 3.2 nM to 100 μM in a total volume of 40 μL assay buffer (25 mM Tris, pH 7.2, 160 mM NaCl, 1 mM MgCl2). His-EBNA1 (30 nM) and bt-oPL4624 (0.4 nM) were preincubated with 10 μg/mL nickel chelate AlphaScreen acceptor bead, or 10 μg/mL streptavidin AlphaScreen donor bead, respectively, for 30 minutes at room temperature in assay buffer. Twenty microliters of His-EBNA1/acceptor bead mix and bt-oPL4624/donor bead mix were transferred to assay plates containing 0.4 μL of 1:3 serial dilutions of test compounds previously prepared in DMSO at concentrations ranging from 0.32 μM to 10 mM. Non-specific binding was determined with 5 μg/mL AlphaScreen acceptor bead in the absence of His-EBNA1. After 2 hr incubation at room temperature, the AlphaScreen signal was measured on the Envision plate reader (PerkinElmer, Inc.) at 680 nm excitation and 570 nm emission. Inhibition values at each concentration of test compound were determined by setting 100% equal to raw data values in the absence of EBNA1 and 0% equal to the raw data values in the presence of EBNA1. Nonlinear regression fits of the inhibition values to a one-site dose-response equation were performed using GraphPad Prism.
(In general: Alpha assays give light when donor and acceptor beads are brought close together.)
As for `CS(=O)(=O)Nc1cccc(CN2CCc3ccc(C#Cc4cccc(C(=O)O)c4-c4ccc5cc[nH]c5c4)cc3C2)c1` [Entry 67], the IC50 is 1 to 10 µM.

As to `Nc1nc2c(s1)C[C@@H](NCc1ccc(C#Cc3cccc(C(=O)O)c3-c3ccc4cc[nH]c4c3)cc1)CC2` [Entry 174], the IC50 was in the range of 1 to 10 µM.

With `O=C(O)c1cccc(C#Cc2cccc(-c3cnco3)c2)c1-c1ccc2cc[nH]c2c1` [Entry 107], the IC50 was in the range of 1 to 10 µM.

`O=C(O)c1cccc(C#Cc2ccc(OC3CCS(=O)(=O)CC3)cc2)c1-c1ccc2cn[nH]c2c1` [Entry 185] yielded an IC50 of 10 to 100 µM.

The compound `Cn1ccc2ccc(-c3c(C#Cc4ccccc4)cccc3C(=O)O)nc21` [Entry 116] registered an IC50 of 10 to 100 µM.

In turn, `CCOC(=O)N1CCN(Cc2cccc(C#Cc3cccc(C(=O)O)c3-c3ccc4cc[nH]c4c3)c2)CC1` [Entry 104] returned an IC50 of 10 to 100 µM.

As to `Nc1ccc(C#Cc2cccc(C(=O)O)c2-c2ccc3cc[nH]c3c2)cc1S(N)(=O)=O` [Entry 123], the IC50 was in the range of 10 to 100 µM.

The compound `CS(=O)(=O)N1CCC(N2CCc3ccc(C#Cc4cccc(C(=O)O)c4-c4ccc5cc[nH]c5c4)cc3C2)C1` (centres unmarked) [Entry 58] registered an IC50 of 10 to 100 µM.

On to `CN1CCN(Cc2ccc(C#Cc3cccc(C(=O)O)c3-c3ccc4[nH]ccc4c3)cc2)CC1` [Entry 182], for which the IC50 was 1 to 10 µM.

In turn, `COCCN(C)Cc1ccc(C#Cc2cccc(C(=O)O)c2-c2ccc3cc[nH]c3c2)cc1` [Entry 157] showed a 50% inhibitory concentration (IC50) of 10 to 100 µM.

`O=C(O)c1cccc(C#Cc2ccccc2)c1-c1ccc2cccnc2n1` [Entry 117]: the IC50 fell in the range of 10 to 100 µM.

In turn, `O=C(O)c1cccc(C#Cc2ccc(OC3CCOCC3)cc2)c1-c1ccc2[nH]ccc2c1` [Entry 193] had an IC50 of 1 to 10 µM.

As for `Nc1nc2c(s1)C[C@H](NCc1ccc(C#Cc3cccc(C(=O)O)c3-c3ccc4cc[nH]c4c3)cc1)CC2` [Entry 175], the IC50 was in the range of 1 to 10 µM.

Compound `O=C(O)c1cccc(C#Cc2ccc(COc3cncnc3)cc2)c1-c1ccc2cc[nH]c2c1` [Entry 96] came in with an IC50 of 1 to 10 µM.

`Nc1nc(-c2ccc(C#Cc3cccc(C(=O)O)c3-c3ccc4cc[nH]c4c3)cc2)c(C(=O)O)s1` [Entry 129] had an IC50 below 1 µM.

In turn, `O=C(O)c1cccc(C#Cc2ccccc2)c1-c1ccc2cc[nH]c2n1` [Entry 118] showed an IC50 of 100 to 1000 µM.

Take `O=C(O)c1cccc(C#Cc2ccccc2)c1-c1ccc2ncsc2c1` [Entry 110]: the half-maximal inhibitory concentration (IC50) fell in the range of 10 to 100 µM.

The compound `CS(=O)(=O)N1CCC(Cn2ccc3cc(C#Cc4cccc(C(=O)O)c4-c4ccc5cc[nH]c5c4)cnc32)CC1` [Entry 20] showed a half-inhibitory concentration (IC50) of 1 to 10 µM.

`O=C(O)c1cccc(C#Cc2ccc3ccn(CCN4CCS(=O)(=O)CC4)c3c2)c1-c1ccc2cc[nH]c2c1` [Entry 23] had a 50% inhibitory concentration (IC50) of 10 to 100 µM.

Turning to `O=C(O)c1cccc(C#Cc2ccccc2)c1-c1ccc2scnc2c1` [Entry 111], the IC50 is 10 to 100 µM.

For `CS(=O)(=O)Nc1nc(-c2cccc(C#Cc3cccc(C(=O)O)c3-c3ccc4cc[nH]c4c3)c2)cs1` [Entry 132], the IC50 is below 1 µM.

As for `CS(=O)(=O)N1CC(CN2Cc3ccc(C#Cc4cccc(C(=O)O)c4-c4ccc5cc[nH]c5c4)cc3C2)C1` [Entry 71], the IC50 fell in the range of 10 to 100 µM.

Compound `CC(=O)N1CCC(CN2CCc3ccc(C#Cc4cccc(C(=O)O)c4-c4ccc5cc[nH]c5c4)cc3C2)C1` (centres unmarked) [Entry 63] yielded an IC50 of 10 to 100 µM.

Take `CN(C)CCN(C)Cc1ccc(C#Cc2cccc(C(=O)O)c2-c2ccc3cc[nH]c3c2)cc1` [Entry 149]: the IC50 is 10 to 100 µM.

`CS(=O)(=O)Nc1cccc(-c2cccc(C#Cc3cccc(C(=O)O)c3-c3ccc4cc[nH]c4c3)c2)c1` [Entry 99] returned an IC50 of 1 to 10 µM.

Compound `O=C(O)c1cccc(C#Cc2cn(CCN3CCOCC3)c3ncccc23)c1-c1ccc2cc[nH]c2c1` [Entry 10] gave an IC50 of 10 to 100 µM.

For `O=C(O)c1cccc(C#Cc2ccc(C(=O)N3CCOCC3)c(O)c2)c1-c1ccc2cc[nH]c2c1` [Entry 46], the IC50 lay within 10 to 100 µM.

As for `O=C(O)c1cccc(C#Cc2ccc(CN3CCC(F)(F)CC3)cc2)c1-c1ccc2[nH]ccc2c1` [Entry 181], the IC50 was in the range of 1 to 10 µM.

In the case of `O=C(O)c1cccc(C#Cc2ccc(COc3cccnc3)cc2)c1-c1ccc2cc[nH]c2c1` [Entry 90], the IC50 lay within 1 to 10 µM.

`O=C(O)c1cccc(C#Cc2ccc3ccn(CC4CCOCC4)c3c2F)c1-c1ccc2cc[nH]c2c1` [Entry 36] showed an IC50 of 1 to 10 µM.

`CS(=O)(=O)N1CCC(CN2Cc3ccc(C#Cc4cccc(C(=O)O)c4-c4ccc5cc[nH]c5c4)cc3C2)C1` (centres unmarked) [Entry 70] yielded an IC50 of 1 to 10 µM.

Consider `O=C(O)c1cccc(C#Cc2cccc(CN3CCc4ccccc4C3)c2)c1-c1ccc2cc[nH]c2c1` [Entry 102], for which the IC50 is 1 to 10 µM.

On to `CS(=O)(=O)NC(=O)c1cccc(C#Cc2ccc(COC3CCOCC3)cc2)c1-c1ccc2cc[nH]c2c1` [Entry 195], for which the IC50 was 10 to 100 µM.

As to `O=C(O)c1cccc(C#Cc2ccc(COc3cccc(C(F)(F)F)c3)cc2)c1-c1ccc2cc[nH]c2c1` [Entry 84], the IC50 fell in the range of 1 to 10 µM.

The compound `CS(=O)(=O)N1CC(CN2CCc3ccc(C#Cc4cccc(C(=O)O)c4-c4ccc5cc[nH]c5c4)cc3C2)C1` [Entry 65] returned an IC50 of 10 to 100 µM.

Consider `CCCNC(=O)c1cc2ccc(C#Cc3cccc(C(=O)O)c3-c3ccc4cc[nH]c4c3)cc2[nH]1` [Entry 101], for which the half-inhibitory concentration (IC50) was in the range of 1 to 10 µM.

Compound `O=C(O)c1cccc(C#Cc2ccc3c(ccn3CC3CCOCC3)c2)c1-c1ccc2cc[nH]c2c1` [Entry 18] registered an IC50 of 1 to 10 µM.

For the compound `NC(=O)c1cccc(OCc2ccc(C#Cc3cccc(C(=O)O)c3-c3ccc4cc[nH]c4c3)cc2)c1` [Entry 82], the IC50 was 1 to 10 µM.

As to `O=C(O)c1cccc(C#Cc2ccc(COc3ccc(Cl)c(Cl)c3)cc2)c1-c1ccc2cc[nH]c2c1` [Entry 92], the IC50 was 1 to 10 µM.

As for `O=C(O)c1cccc(C#Cc2ccccc2)c1-c1cnc2[nH]ccc2c1` [Entry 139], the IC50 was below 1 µM.

`NS(=O)(=O)c1cccc(C#Cc2cccc(C(=O)O)c2-c2ccc3cc[nH]c3c2)c1` [Entry 122]: the IC50 was 10 to 100 µM.

As to `CC(C)N1CCN(Cc2ccc(C#Cc3cccc(C(=O)O)c3-c3ccc4cc[nH]c4c3)cc2)CC1` [Entry 164], the IC50 lay within 10 to 100 µM.

`COc1ccc(C#Cc2cccc(C(=O)O)c2-c2cnc3[nH]ccc3c2)cc1` [Entry 141] yielded a 50% inhibitory concentration (IC50) of 10 to 100 µM.

Compound `CN(C)Cc1ccc(C#Cc2cccc(C(=O)O)c2-c2ccc3cc[nH]c3c2)cc1` [Entry 156] returned a half-inhibitory concentration (IC50) of 10 to 100 µM.

As for `O=C(O)c1cccc(C#Cc2ccc(CN3CCC(O)CC3)cc2)c1-c1ccc2cc[nH]c2c1` [Entry 154], the IC50 lay in the range of 10 to 100 µM.

`COc1cc(-c2c(C#Cc3ccccc3)cccc2C(=O)O)cc2[nH]ccc12` [Entry 119] came in with an IC50 of 1 to 10 µM.

As to `O=C(O)c1cccc(C#Cc2ccc(-c3cnco3)cc2)c1-c1ccc2cc[nH]c2c1` [Entry 43], the IC50 lay in the range of 1 to 10 µM.

Turning to `CS(=O)(=O)N1CCN(Cc2c[nH]c3cc(C#Cc4cccc(C(=O)O)c4-c4ccc5cc[nH]c5c4)ccc23)CC1` [Entry 31], the IC50 was 1 to 10 µM.

In the case of `O=C(O)c1cccc(C#Cc2ccc(CN3CCN(c4nccs4)CC3)cc2)c1-c1ccc2cc[nH]c2c1` [Entry 173], the half-inhibitory concentration (IC50) is 1 to 10 µM.

As to `O=C(O)c1cccc(C#Cc2ccc(COc3cccc(Cl)c3)cc2)c1-c1ccc2cc[nH]c2c1` [Entry 91], the 50% inhibitory concentration (IC50) is 1 to 10 µM.

The compound `O=C(O)c1cccc(C#Cc2cccc(-c3nn[nH]n3)c2)c1-c1ccc2cc[nH]c2c1` [Entry 42] had an IC50 below 1 µM.

With `CS(=O)(=O)N1CC(N2Cc3ccc(C#Cc4cccc(C(=O)O)c4-c4ccc5cc[nH]c5c4)cc3C2)C1` [Entry 69], the IC50 is 1 to 10 µM.

`CS(=O)(=O)N1CCc2cc(C#Cc3cccc(C(=O)O)c3-c3ccc4cc[nH]c4c3)ccc2C1` [Entry 76] registered a concentration for half-maximal inhibition (IC50) of 1 to 10 µM.

Compound `CN(C)C(=O)N1CCN(Cc2ccc(C#Cc3cccc(C(=O)O)c3-c3ccc4cc[nH]c4c3)cc2)CC1` [Entry 171] came in with an IC50 of 10 to 100 µM.

For `O=C(O)c1cccc(C#Cc2ccc(COc3ccc(C(F)(F)F)cc3)cc2)c1-c1ccc2cc[nH]c2c1` [Entry 83], the half-maximal inhibitory concentration (IC50) is 1 to 10 µM.

`CS(=O)(=O)N1CCN(Cc2ccc(C#Cc3cccc(C(=O)O)c3-c3ccc4cn[nH]c4c3)cc2)CC1` [Entry 204]: the IC50 is 10 to 100 µM.

The compound `O=C(O)c1cccc(C#Cc2ccc(CN3CCC(F)(F)CC3)cc2)c1-c1ccc2cc[nH]c2c1` [Entry 158] gave an IC50 of 1 to 10 µM.

As for `CC(C)S(=O)(=O)N1CCc2ccc(C#Cc3cccc(C(=O)O)c3-c3ccc4cc[nH]c4c3)cc2C1` [Entry 74], the concentration for half-maximal inhibition (IC50) was 1 to 10 µM.

Regarding `O=C(O)c1cccc(C#Cc2ccc(CN3CCN(C(=O)C4CC4)CC3)cc2)c1-c1ccc2cc[nH]c2c1` [Entry 166], the IC50 lay within 1 to 10 µM.
